Measurements taken from PubChem BioAssay (NCI).
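In this assay, cells in 96-well plates receive the compound at five concentrations for 48 hours. Endpoints are linearly interpolated between the surrounding concentrations. TGI: concentration producing complete growth inhibition.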

Key:
Assay in all cases: inhibition of tumour cell growth, NCI panel, 48 h
OVCAR-4 ovarian = system: OVCAR-4 ovarian
UACC-257 melanoma = system: UACC-257 melanoma
HT29 colon = system: HT29 colon
SF-539 CNS = system: SF-539 CNS
NCI-H23 lung = system: NCI-H23 lung
A498 renal = system: A498 renal
XF 498 CNS = system: XF 498 CNS
M14 melanoma = system: M14 melanoma
TK-10 renal = system: TK-10 renal
SF-268 CNS = system: SF-268 CNS
MOLT-4 leukemia = system: MOLT-4 leukemia
CAKI-1 renal = system: CAKI-1 renal
K-562 leukemia = system: K-562 leukemia
NCI-H460 lung = system: NCI-H460 lung
HCT-116 colon = system: HCT-116 colon
UO-31 renal = system: UO-31 renal
EKVX NSCLC = system: EKVX NSCLC
SK-MEL-28 melanoma = system: SK-MEL-28 melanoma
ACHN renal = system: ACHN renal
OVCAR-5 ovarian = system: OVCAR-5 ovarian
RPMI-8226 leukemia = system: RPMI-8226 leukemia
SNB-19 CNS = system: SNB-19 CNS
IGROV1 ovarian = system: IGROV1 ovarian
MALME-3M melanoma = system: MALME-3M melanoma
A549 NSCLC = system: A549 NSCLC
SNB-78 CNS = system: SNB-78 CNS
SR leukemia = system: SR leukemia
U251 CNS = system: U251 CNS
NCI-H226 lung = system: NCI-H226 lung
HOP-18 NSCLC = system: HOP-18 NSCLC
RXF-631 renal = system: RXF-631 renal
SNB-75 CNS = system: SNB-75 CNS
SK-MEL-5 melanoma = system: SK-MEL-5 melanoma
COLO 205 colon = system: COLO 205 colon
HOP-92 NSCLC = system: HOP-92 NSCLC
SK-OV-3 ovarian = system: SK-OV-3 ovarian
786-0 renal = system: 786-0 renal
M19-MEL melanoma = system: M19-MEL melanoma
KM12 colon = system: KM12 colon
HCC-2998 colon = system: HCC-2998 colon
HCT-15 colon = system: HCT-15 colon
RXF 393 renal = system: RXF 393 renal
HL-60(TB) leukemia = system: HL-60(TB) leukemia
HOP-62 NSCLC = system: HOP-62 NSCLC
KM20L2 colon = system: KM20L2 colon
SN12C renal = system: SN12C renal
NCI-H522 lung = system: NCI-H522 lung
CCRF-CEM leukemia = system: CCRF-CEM leukemia
OVCAR-3 ovarian = system: OVCAR-3 ovarian
OVCAR-8 ovarian = system: OVCAR-8 ovarian
LXFL 529 NSCLC = system: LXFL 529 NSCLC
SW-620 colon = system: SW-620 colon
UACC-62 melanoma = system: UACC-62 melanoma
DLD-1 colon = system: DLD-1 colon
LOX IMVI melanoma = system: LOX IMVI melanoma
SK-MEL-2 melanoma = system: SK-MEL-2 melanoma
DMS 273 small cell lung = system: DMS 273 small cell lung
SF-295 CNS = system: SF-295 CNS
DMS 114 small cell lung = system: DMS 114 small cell lung

CCOc1ccc(NC(=O)CC2C(=O)Nc3ccccc3S2=O)cc1 (stereo not given)
TGI (OVCAR-4 ovarian): > 70.2 µM | TGI (UACC-257 melanoma): > 100 µM | TGI (HT29 colon): > 100 µM | TGI (SF-539 CNS): > 100 µM | TGI (NCI-H23 lung): > 100 µM | TGI (A498 renal): > 78.5 µM | TGI (XF 498 CNS): 74.4 µM | TGI (M14 melanoma): > 100 µM | TGI (TK-10 renal): > 96.2 µM | TGI (SF-268 CNS): > 100 µM | TGI (MOLT-4 leukemia): > 100 µM | TGI (CAKI-1 renal): > 92.9 µM | TGI (K-562 leukemia): > 100 µM | TGI (NCI-H460 lung): > 100 µM | TGI (HCT-116 colon): > 100 µM | TGI (UO-31 renal): > 83.1 µM | TGI (EKVX NSCLC): > 46.4 µM | TGI (SK-MEL-28 melanoma): > 100 µM | TGI (ACHN renal): > 86.7 µM | TGI (OVCAR-5 ovarian): > 100 µM | TGI (RPMI-8226 leukemia): > 100 µM | TGI (SNB-19 CNS): > 89.3 µM | TGI (IGROV1 ovarian): > 100 µM | TGI (MALME-3M melanoma): > 100 µM | TGI (A549 NSCLC): > 100 µM | TGI (SNB-78 CNS): > 100 µM | TGI (SR leukemia): > 88.5 µM | TGI (U251 CNS): > 75.4 µM | TGI (NCI-H226 lung): > 86.7 µM | TGI (HOP-18 NSCLC): > 100 µM | TGI (RXF-631 renal): > 100 µM | TGI (SNB-75 CNS): 50.6 µM | TGI (SK-MEL-5 melanoma): > 100 µM | TGI (COLO 205 colon): > 100 µM | TGI (HOP-92 NSCLC): > 70.6 µM | TGI (SK-OV-3 ovarian): > 100 µM | TGI (786-0 renal): > 76.6 µM | TGI (M19-MEL melanoma): > 100 µM | TGI (KM12 colon): > 100 µM | TGI (HCC-2998 colon): > 100 µM | TGI (HCT-15 colon): > 100 µM | TGI (RXF 393 renal): 66.9 µM | TGI (HL-60(TB) leukemia): > 100 µM | TGI (HOP-62 NSCLC): > 100 µM | TGI (KM20L2 colon): > 46.4 µM | TGI (SN12C renal): > 100 µM | TGI (NCI-H522 lung): > 100 µM | TGI (CCRF-CEM leukemia): > 100 µM | TGI (OVCAR-3 ovarian): > 78.7 µM | TGI (OVCAR-8 ovarian): > 85.8 µM | TGI (LXFL 529 NSCLC): > 100 µM | TGI (SW-620 colon): > 100 µM | TGI (UACC-62 melanoma): > 46.4 µM | TGI (DLD-1 colon): > 100 µM | TGI (LOX IMVI melanoma): > 100 µM | TGI (SK-MEL-2 melanoma): > 100 µM | TGI (DMS 273 small cell lung): > 100 µM | TGI (SF-295 CNS): > 100 µM

COc1cc(C2C(C(=O)O)=C(CO)Oc3cc4c(cc32)OCO4)cc(OC)c1OC (stereo not given)
TGI (OVCAR-4 ovarian): > 100 µM | TGI (UACC-257 melanoma): > 100 µM | TGI (HT29 colon): > 100 µM | TGI (NCI-H23 lung): > 100 µM | TGI (XF 498 CNS): > 100 µM | TGI (M14 melanoma): > 100 µM | TGI (TK-10 renal): > 100 µM | TGI (MOLT-4 leukemia): > 100 µM | TGI (CAKI-1 renal): > 100 µM | TGI (K-562 leukemia): > 100 µM | TGI (NCI-H460 lung): > 100 µM | TGI (HCT-116 colon): > 100 µM | TGI (UO-31 renal): > 100 µM | TGI (EKVX NSCLC): > 100 µM | TGI (SK-MEL-28 melanoma): > 100 µM | TGI (ACHN renal): > 100 µM | TGI (OVCAR-5 ovarian): > 100 µM | TGI (RPMI-8226 leukemia): > 100 µM | TGI (SNB-19 CNS): > 100 µM | TGI (IGROV1 ovarian): > 100 µM | TGI (A549 NSCLC): > 100 µM | TGI (SNB-78 CNS): > 100 µM | TGI (DMS 114 small cell lung): > 100 µM | TGI (U251 CNS): > 100 µM | TGI (HOP-18 NSCLC): > 100 µM | TGI (RXF-631 renal): > 100 µM | TGI (SNB-75 CNS): > 100 µM | TGI (SK-MEL-5 melanoma): > 100 µM | TGI (COLO 205 colon): > 100 µM | TGI (HOP-92 NSCLC): > 100 µM | TGI (SK-OV-3 ovarian): > 100 µM | TGI (M19-MEL melanoma): > 100 µM | TGI (HCT-15 colon): > 100 µM | TGI (RXF 393 renal): > 100 µM | TGI (HL-60(TB) leukemia): > 100 µM | TGI (KM20L2 colon): > 100 µM | TGI (SN12C renal): > 100 µM | TGI (CCRF-CEM leukemia): > 100 µM | TGI (OVCAR-8 ovarian): > 100 µM | TGI (SW-620 colon): > 100 µM | TGI (UACC-62 melanoma): > 100 µM | TGI (DLD-1 colon): > 100 µM | TGI (LOX IMVI melanoma): > 100 µM | TGI (DMS 273 small cell lung): > 100 µM | TGI (SF-295 CNS): > 100 µM

COC(=O)C(C(=O)C(=O)Nc1nc(=S)[nH][nH]1)c1csc(N)n1 (stereo not given)
TGI (OVCAR-4 ovarian): > 100 µM | TGI (UACC-257 melanoma): > 100 µM | TGI (HT29 colon): > 100 µM | TGI (SF-539 CNS): > 100 µM | TGI (NCI-H23 lung): > 100 µM | TGI (A498 renal): > 100 µM | TGI (XF 498 CNS): > 100 µM | TGI (M14 melanoma): > 100 µM | TGI (TK-10 renal): > 100 µM | TGI (SF-268 CNS): > 100 µM | TGI (MOLT-4 leukemia): > 100 µM | TGI (CAKI-1 renal): > 100 µM | TGI (K-562 leukemia): > 100 µM | TGI (NCI-H460 lung): > 100 µM | TGI (HCT-116 colon): > 100 µM | TGI (UO-31 renal): > 100 µM | TGI (EKVX NSCLC): > 100 µM | TGI (SK-MEL-28 melanoma): > 100 µM | TGI (ACHN renal): > 100 µM | TGI (OVCAR-5 ovarian): > 100 µM | TGI (RPMI-8226 leukemia): > 100 µM | TGI (SNB-19 CNS): > 100 µM | TGI (IGROV1 ovarian): > 100 µM | TGI (MALME-3M melanoma): > 100 µM | TGI (A549 NSCLC): > 100 µM | TGI (SNB-78 CNS): > 100 µM | TGI (SR leukemia): > 100 µM | TGI (U251 CNS): > 100 µM | TGI (NCI-H226 lung): > 100 µM | TGI (HOP-18 NSCLC): > 100 µM | TGI (RXF-631 renal): > 100 µM | TGI (SNB-75 CNS): > 100 µM | TGI (SK-MEL-5 melanoma): > 100 µM | TGI (COLO 205 colon): > 100 µM | TGI (SK-OV-3 ovarian): > 100 µM | TGI (786-0 renal): > 100 µM | TGI (M19-MEL melanoma): > 100 µM | TGI (KM12 colon): > 100 µM | TGI (HCC-2998 colon): > 100 µM | TGI (HCT-15 colon): > 100 µM | TGI (RXF 393 renal): > 100 µM | TGI (HL-60(TB) leukemia): > 100 µM | TGI (HOP-62 NSCLC): > 100 µM | TGI (KM20L2 colon): > 100 µM | TGI (SN12C renal): > 100 µM | TGI (NCI-H522 lung): > 100 µM | TGI (CCRF-CEM leukemia): > 100 µM | TGI (OVCAR-3 ovarian): > 100 µM | TGI (OVCAR-8 ovarian): > 100 µM | TGI (LXFL 529 NSCLC): > 100 µM | TGI (SW-620 colon): > 100 µM | TGI (UACC-62 melanoma): > 100 µM | TGI (DLD-1 colon): > 100 µM | TGI (LOX IMVI melanoma): > 100 µM | TGI (SK-MEL-2 melanoma): > 100 µM | TGI (DMS 273 small cell lung): > 100 µM | TGI (SF-295 CNS): > 100 µM
